Source: patent publication US12281113B2, “Crystalline forms of a KRas G12C inhibitor” (MIRATI THERAPEUTICS, INC., priority 2020, dated 2025)
Values joined by “and” are separate entries in the source; they are usually repeats but may differ in a detail not shown here. Identical values can stand only once.

Columns and labels:
Type in all cases: physicochemical
[1] = 1 month stability of MRTX849 crystalline vs amorphous, HPLC evaluation after accelerated stress conditions
[2] = Comparative thermal stability study of Form A, Form B and amorphous MRTX849 Drug Substance; details: for change in appearance on storage: two weeks at 60° C., two months at 25° C./60% RH and 40° C./75% RH
Experimental: (§1) 40° C./75% RH and 60° C. in loosely capped, foil-wrapped small glass vials. Data was obtained for up to two weeks for samples stored at 60° C. and up to two months for samples stored at 25° C./60% RH and 40° C./75% RH. In addition, data was generated from photostability study performed on all three lots as a part of the protocol.

[3] = Photostability study (1/2 ICH conditions)
Experimental: as §1

[4] = Dynamic vapor sorption isotherm, 25° C., 0-90% RH; details: for weight gain (DVS): sorption
Experimental: (§2) Sorption isotherms of crystalline Form A were obtained using a SMS GVS Intrinsic moisture sorption analyzer, controlled by GVS Intrinsic Control software. The sample temperature was maintained at 25° C. by the instrument controls. The humidity was controlled by mixing streams of dry and wet nitrogen, with a total flow rate of 200 ml/min. The relative humidity was measured by a calibrated Rotronic probe (dynamic range of 1.0-100% RH), located near the sample. The weight change (mass relaxation) of the sample as a function of % RH was constantly monitored by a microbalance (accuracy ±0.005 mg).
(§3) The sample was loaded and unloaded at 40% RH and 25° C. (typical room conditions). A moisture sorption isotherm was performed as outlined below (2 scans per complete cycle). The standard isotherm was performed at 25° C. at 10% RH intervals over a 0-90% RH range. A double cycle (4 scans) was carried out. Data analysis was carried out within Microsoft Excel using the DVS Analysis Suite.
as §2, with “B” for “A”, “DVS” for “GVS”, “change,” for “change”
as §3, with “Briefly, a sample of crystalline Form B was placed in a tared mesh stainless steel basket under ambient conditions. The sample” for “The sample”

[5] = Dynamic vapor sorption, 5% to 95% RH
Experimental: Vapor Sorption isotherms were obtained using a Surface Measurement System (SMS) DVS Intrinsic moisture sorption analyzer, controlled by DVS Intrinsic Control software. Samples were not dried prior to analysis. Sorption and desorption data were collected over a range of 5%-95% relative humidity (RH) at 10% RH increments under a nitrogen purge. The equilibrium criterion used for analysis was less than 0.0100% weight change in 5 minutes with a maximum equilibration time of 3 hours.
Vapor sorption data were collected on a Surface Measurement System DVS Intrinsic instrument. Samples were not dried prior to analysis. Sorption and desorption data were collected over a range from 5% to 95% RH at 10% RH increments under a nitrogen purge. The equilibrium criterion used for analysis was less than 0.0100% weight change in 5 minutes with a maximum equilibration time of 3 hours.

[6] = 0.5 × ICH: Vis Stress at 600 klux-hrs, UV Stress at 100 W-hr/m^2

Structure (SMILES)	Appearance ([2]; 1 Month 25° C./60% RH)	Total impurities ([2]; 1 Month 25° C./60% RH)	Appearance ([2]; 1 Month 40° C./75% RH)	Total impurities ([2]; 1 Month 40° C./75% RH)	Appearance ([2]; 1 Week 60° C.)	Total impurities ([2]; 1 Week 60° C.)	Appearance ([2]; 2 Months 25° C./60% RH)	Total impurities ([2]; 2 Months 25° C./60% RH)	Appearance ([2]; 2 Months 40° C./75% RH)	Total impurities ([2]; 2 Months 40° C./75% RH)	Appearance ([2]; 2 Weeks 40° C./75% RH)	Total impurities ([2]; 2 Weeks 40° C./75% RH)	Appearance ([2]; 2 Weeks 60° C.)	Total impurities ([2]; 2 Weeks 60° C.)	Appearance ([2]; Initial T(0))	Purity [3, 6]	Purity ([3]; Control)	Purity ([3]; T(0))	change in appearance on storage [2]	weight gain (DVS) ([4]; at 90% RH)	also measured
C=C(F)C(=O)N1CCN(c2nc(OC[C@@H]3CCCN3C)nc3c2CCN(c2cccc4cccc(Cl)c24)C3)C[C@@H]1CC#N [API standard]	–	–	–	–	–	–	–	–	–	–	–	–	–	–	–	–	–	–	–	–	Total impurities (%) ([1]; API standard): 0.71%
C=C(F)C(=O)N1CCN(c2nc(OC[C@@H]3CCCN3C)nc3c2CCN(c2cccc4cccc(Cl)c24)C3)C[C@@H]1CC#N [Form B, 2-[(2S)-4-[7-(8-chloro-1-naphthyl)-2-[[(2S)-1-methylpyrrolidin-2-yl]methoxy]-6,8-dihydro-5H-pyrido[3,4-d]pyrimidin-4-yl]-1-(2-fluoroprop-2-enoyl)piperazin-2-yl]acetonitrile Form B]	Creamy	0.23%	Creamy	0.35%	Creamy	0.31%	Creamy	–	Creamy	0.4% and 0.44%	Creamy	0.37%	Creamy	0.4%	Creamy	98.41	99.74	99.75	no change in appearance	2.5%	Total impurities ([2]; Initial T(0)): 0.3%; weight change (DVS) on desorption ([4]; at 50% RH after desorption from 70% RH): 0.4%; weight gain (DVS) ([4]; at 60% RH): about 0.6%; weight change (DVS) on desorption ([4]; at 70% RH after desorption from 90% RH): 2.2%; weight gain (DVS) ([4]; at 70% RH): 2.9%; water corresponding to DVS weight gain ([5]; 5% to 95% RH): 1.3 mol water; weight gain (DVS) ([5]; between 5% and 55% RH): 0.2 wt %; weight gain increase (DVS) ([5]; between 55% and 95% RH): 3.5%
C=C(F)C(=O)N1CCN(c2nc(OC[C@@H]3CCCN3C)nc3c2CCN(c2cccc4cccc(Cl)c24)C3)C[C@@H]1CC#N [Form E, 2-[(2S)-4-[7-(8-chloro-1-naphthyl)-2-[[(2S)-1-methylpyrrolidin-2-yl]methoxy]-6,8-dihydro-5H-pyrido[3,4-d]pyrimidin-4-yl]-1-(2-fluoroprop-2-enoyl)piperazin-2-yl]acetonitrile Form E]	–	–	–	–	–	–	–	–	–	–	–	–	–	–	–	–	–	–	–	–	gradual weight gain (DVS) ([5]; between 5% to 96% RH): 1.2%
C=C(F)C(=O)N1CCN(c2nc(OC[C@@H]3CCCN3C)nc3c2CCN(c2cccc4cccc(Cl)c24)C3)C[C@@H]1CC#N [MRTX849 crystalline, 2-[(2S)-4-[7-(8-chloro-1-naphthyl)-2-[[(2S)-1-methylpyrrolidin-2-yl]methoxy]-6,8-dihydro-5H-pyrido[3,4-d]pyrimidin-4-yl]-1-(2-fluoroprop-2-enoyl)piperazin-2-yl]acetonitrile]	–	–	–	–	–	–	–	–	–	–	–	–	–	–	–	–	–	–	–	–	Total impurities (%) ([1]; 40° C./75% RH, 1 month): 0.77%

More lines, main results first:

Appearance ([2]; 1 Month 25° C./60% RH)	Total impurities ([2]; 1 Month 25° C./60% RH)	Appearance ([2]; 1 Month 40° C./75% RH)	Total impurities ([2]; 1 Month 40° C./75% RH)	Appearance ([2]; 1 Week 60° C.)	Total impurities ([2]; 1 Week 60° C.)	Appearance ([2]; 2 Months 25° C./60% RH)	Total impurities ([2]; 2 Months 25° C./60% RH)	Appearance ([2]; 2 Months 40° C./75% RH)	Total impurities ([2]; 2 Months 40° C./75% RH)	Appearance ([2]; 2 Weeks 40° C./75% RH)	Total impurities ([2]; 2 Weeks 40° C./75% RH)	Appearance ([2]; 2 Weeks 60° C.)	Total impurities ([2]; 2 Weeks 60° C.)	Appearance ([2]; Initial T(0))	Purity [3, 6]	Purity ([3]; Control)	Purity ([3]; T(0))	change in appearance on storage [2]	weight gain (DVS) ([4]; at 90% RH)	Structure (SMILES)	also measured
Tan Solid	1.42%	Tan Solid	2.36%	Brown Solid	5.93%	Tan Solid	1.86%	Light Brown	5.73%	Tan Solid	1.95%	Brown Solid	9.89%	Tan Solid	91.25	98.42	98.59	–	–	C=C(F)C(=O)N1CCN(c2nc(OC[C@@H]3CCCN3C)nc3c2CCN(c2cccc4cccc(Cl)c24)C3)C[C@@H]1CC#N [Amorphous, 2-[(2S)-4-[7-(8-chloro-1-naphthyl)-2-[[(2S)-1-methylpyrrolidin-2-yl]methoxy]-6,8-dihydro-5H-pyrido[3,4-d]pyrimidin-4-yl]-1-(2-fluoroprop-2-enoyl)piperazin-2-yl]acetonitrile]	Total impurities (%) ([1]; 25° C./60% RH, 1 month): 2.21%; Total impurities (%) ([1]; 40° C./75% RH, 1 month, open): 2.98%; Total impurities (%) ([1]; 40° C./75% RH, 1 month, listed as MRTX849 amorphous): 3.28%; Total impurities ([2]; 2 Months 40° C./75% RH, listed as amorphous material): 5.7%; Total impurities ([2]; 2 Weeks 60° C., listed as amorphous material): 9.9%; Color change on storage ([2]; 60° C. condition and after two months at 40° C./75% RH): changed from tan to brown/light brown; Total impurities ([2]; Initial T(0), listed as amorphous material): 1.4%
Off-white	0.98%	Off-white	1.04%	Off-white	1.27%	Off-white	1.06%	Off-white	1.2% and 1.16%	Off-white	1.07%	Off-white	1.4% and 1.43%	Off-white	96.74	98.91	98.86	no change in appearance	0.6%	C=C(F)C(=O)N1CCN(c2nc(OC[C@@H]3CCCN3C)nc3c2CCN(c2cccc4cccc(Cl)c24)C3)C[C@@H]1CC#N [Form A, 2-[(2S)-4-[7-(8-chloro-1-naphthyl)-2-[[(2S)-1-methylpyrrolidin-2-yl]methoxy]-6,8-dihydro-5H-pyrido[3,4-d]pyrimidin-4-yl]-1-(2-fluoroprop-2-enoyl)piperazin-2-yl]acetonitrile Form A]	weight gain (DVS) ([4]; at 40% RH): about 0.1%; observed weight gain (DVS) ([5]; from 5% to 90% RH): 0.4%
